# Data reported in US5977169A, “Substituted tetronic acids useful for treating HIV and other retroviruses” (priority 1997, dated 1999).
# Molecular target: T1, HIV-1 protease (Human immunodeficiency virus type 1 group M subtype B, UniProt P04585)
# T1 construct: The protease (or proteinase) enzyme, consisting of only 99 amino acids
# Experiment: In vitro HIV protease inhibitory assay (fluorescently labeled substrate, avidin-polystyrene particles)
# Assay type: biochemical
# Details: for inhibition at 3.3 µM: HIV-1 dose 3.3 μM; for inhibition at 10 µM: HIV-1 dose 10.0 μM; for inhibition at 30 µM: HIV-1 dose 30.0 μM; for inhibition at 1.1 µM: HIV-1 dose 1.1 μM
# Protocol: The HIV protease screening assay is based on a fluorescently labeled substrate which can be resolved from nonlabeled cleavage product using avidin-polystyrene particles, 0.7-0.9 μm. The substrate is biotinylated at the amino terminal arginine and fluorescently labeled with fluorescein isothiocynate (FITC) at the carboxyl terminal lysine. This assay has been employed to detect novel, nonpeptidic inhibitors of HIV-1 protease. Substrate (20 μl of 0.2 μM), sample (10 μl of desired concentraion), and enzyme (10 μl of 0.1 μM) are added to a 96 well pandex plate. The assay is run in 0.1 M sodium acetate buffer at pH 5.5 in the presence of 1.0 M sodium chloride and 0.05% NP-40 and incubated in the dark for one hour at room temperature. Avidin coated polystyrene beads (40 μl of 0.1% (w/v)) are added and the incubation is continued in the dark for an additional half hour. The labeled cleavage product is separated from the unreacted substrate via filtration and is read on the IDEXX Screen Machine. (IDEXX Corporation--Portland, Me.) The data are analyzed by appropriate computer algorithms to ascertain percent inhibition values.
# The Activity Table showing the results of the HIV Protease Inhibitory Assay appears below in TABLE 1. The table has three columns, the left column provides the code number of the compound for easy cross reference to structure tables and detailed procedures, the middle column provides the concentration of test compound and the column on the right provides the percent inhibition.
# [1] = test compound concentration 3.3 μM
# [2] = test compound concentration 10.0 μM
# [3] = test compound concentration 30.0 μM
inhibition at 3.3 µM,inhibition at 10 µM,inhibition at 30 µM,Compound,also measured
,,,"O=C1OC2(CCCC2)C(O)=C1C(c1ccccc1)C1CC1 (stereo not drawn) [CX-1, 1-Oxaspiro[4.4]non-3-en-2-one, 3-(cyclopropylphenylmethyl)-4-hydroxy-]",inhibition at 3.7 µM (HIV-1 dose 3.7 μM): 109%; inhibition at 11 µM (HIV-1 dose 11.0 μM): 115%; inhibition at 100 µM (HIV-1 dose 100.0 μM): 109%
103%,116%,103%,"O=C1OC(Cc2ccccc2)(Cc2ccccc2)C(O)=C1C(c1ccccc1)C1CC1 (stereo not drawn) [DX-5, 2(5H)-Furanone, 3-(cyclopropylphenylmethyl)-4-hydroxy-5,5-bis(phenylmethyl)-]",
125%,128%,116%,"CCCC1(Cc2ccccc2)OC(=O)C(C(c2ccccc2)C2CC2)=C1O (stereo not drawn) [DX-4, 2(5H)-Furanone, 3-(cyclopropylphenylmethyl)-4-hydroxy-5-(phenyl-methyl)-5-propyl-]",
,78.1%,86%,"O=C1OC2(CCCCC2CCc2ccccc2)C(O)=C1C(c1ccccc1)C1CC1 (stereo not drawn) [IX-4, 1 -Oxaspiro[4.5]dec-3-en-2-one, 3-(cyclo-propylphenylmethyl)-5-hydroxy--6-(2-phenylethyl)-]",HIV-1 Protease % Inhibition [1]: 56.89%
94.5%,94.7%,89.1%,"CCCC1(CCC)OC(=O)C(C(c2ccccc2)c2cccc(NS(=O)(=O)c3cn(C)cn3)c2)=C1O (stereo not drawn) [IX-48, 1H-Imidazole-4-sulfonamide, N-(3-((5,5-dipropyl-4-hydroxy-2-oxo-2,5-dihydro-3 furanyl)-phenyl-methyl)phenyl)-1-methyl-]",
110%,104%,99.9%,"CCCC1(CCC)OC(=O)C(C(c2cccc(NS(=O)(=O)c3ccccn3)c2)C2CC2)=C1O (stereo not drawn) [IX-52, 2-Pyridinesulfonamide, N-(3-(cyclopropyl-(4-hydroxy-2-oxo-5,5-dipropyl-2,5-dihydro-furan-3-yl)-methyl)-phenyl)-]",
14.9%,34.1%,59%,"O=C1OC2(CCNCC2)C(O)=C1C(c1ccccc1)C1CC1 (stereo not drawn) [OX-2, 3-(Cyclopropyl-phenyl-methy1)-4-hydroxy--1-oXa-8-aza-spiro[4.5]dec-3-en-2-one]",
108%,109%,106%,CCCC1(CCC)OC(=O)C(C(c2cccc(NS(=O)(=O)c3ccc(F)cc3)c2)C2CC2)=C1O (stereo not drawn) [IX-16],
56.6%,84.4%,96.5%,"CC(C)C(C1=C(O)C(CCCc2ccccc2)OC1=O)c1ccccc1 (stereo not drawn) [FX-4, 2(5H)-Furanone, 4-hydroxy-3-(2-methyl-1-phenylpropyl)-5-(3-phenylpropyl)-]",
59.9%,86.5%,89.4%,"CCCC1(CCC)OC(=O)C(C(CC)c2cccc(N)c2)=C1O (stereo not drawn) [IX-13, 2(5H)-Furanone, 3-(1-(3-aminophenyl)propyl)-4-hydroxy-4-hydroxy-5,5-dipropyl-]",
101%,104%,105%,"O=C1OC2(CCCCC2Cc2ccccc2)C(O)=C1C(c1ccccc1)C1CC1 (stereo not drawn) [IX-6, 1-Oxaspiro[4.5]dec-3-en-2-one, 3-(cyclo-propylphenylmethyl)-4-hydroxy--6-(2-phenylmethyl)-]",
,,,"O=C1OC2(CCCCC2Cc2ccccc2)C(O)=C1C(c1ccccc1)C1CC1 (stereo not drawn) [IX-7, 1-Oxaspiro[4.5]dec-3-en-2-one, 3-(cyclo-propylphenylmethyl)4-hydroxy-6--(2-phenylmethyl)-]",HIV-1 Protease % Inhibition [1]: 102.85%; HIV-1 Protease % Inhibition [2]: 99.7%; HIV-1 Protease % Inhibition [3]: 95.76%
79.8%,86.8%,87.4%,"O=C1OC2(CCN(C(=O)OCC3c4ccccc4-c4ccccc43)CC2)C(O)=C1C(c1ccccc1)C1CC1 (stereo not drawn) [IX-58, 3-(Cyclopropyl-phenyl-methyl)-4-hydroxy-2-oxo-1-oxa-8-aza-spiro[4.5]dec-3-ene-8-carboxylic acid 9H-fluoren-9-ylmethyl ester]",
104%,108%,,"CC(C)C1(C(C)C)OC(=O)C(C(c2ccccc2)C2CC2)=C1O (stereo not drawn) [BX-13, 2(5H)-Furanone, 3-(cyclopropylphenylmethyl)-4-hydroxy-5,5-bis(1-methylethyl)-]",inhibition at 1.1 µM: 94.1%
94%,94.1%,99.2%,"CCCCC(CC)C1OC(=O)C(C(c2ccccc2)C2CC2)=C1O (stereo not drawn) [GX-5, 2(5H)-Furanone, 3-(cyclopropylphenylmethyl)-5-(1-ethylpentyl)-4-hydroxy-]",
83%,85%,84.8%,CCCC1(CCC)OC(=O)C(C(c2cccc(NS(=O)(=O)c3ccc4ccccc4n3)c2)C2CC2)=C1O (stereo not drawn) [IX-38],
109%,101%,112%,"CCCC1(CCC)OC(=O)C(C(c2cccc(NS(=O)(=O)c3ccc(C#N)cc3)c2)C(C)C)=C1O (stereo not drawn) [IX-23, Benzenesulfonamide, 4-Cyano-N-(3-(1-(4-hydroxy-2-oxo-5,5-dipropyl-2,5-dihydro-furan-3-yl)-2-methyl-propyl)-phenyl)-]",
,,,"O=C1OC2(CCCCC2CCc2ccccc2)C(O)=C1C(c1ccccc1)C1CC1 (stereo not drawn) [IX-5, 1-Oxaspiro[4.5]dec-3-en-2-one, 3-(cyclo-propylphenylmethyl)-4-hydroxy--6-(2-phenylethyl)-]",HIV-1 Protease % Inhibition [1]: 91.93%; HIV-1 Protease % Inhibition [2]: 95.68%; HIV-1 Protease % Inhibition [3]: 92.9%
95.5%,103%,105%,"CCC1(Cc2ccccc2)OC(=O)C(C(c2ccccc2)C2CC2)=C1O (stereo not drawn) [DX-3, 2(5H)-Furanone, 3-(cyclopropylphenylmethyl)-5-ethyl-4-hydroxy-5-(phenyl-methyl)-]",
95.7%,101%,96.1%,"CCCC1(CCC)OC(=O)C(C(CC(C)C)c2cccc(NS(=O)(=O)c3ccc(C#N)cc3)c2)=C1O (stereo not drawn) [IX-21, Benzenesulfonamide, 4-Cyano-N-(3-(1-(4-hydroxy-2-oxo-5,5-dipropyl-2,5-dihydro-furan-3-yl)-3-methyl-butyl)-phenyl)-]",
108%,108%,114%,"CCCC1(CCC)OC(=O)C(C(c2cccc(N)c2)C2CC2)=C1O (stereo not drawn) [IX-11, 2(5H)-Furanone, 3-((3-aminophenyl)cyclopropylmethyl)-4-hydroxy-5,5-dipropyl-]",
,,,"CCCC1(CCC)OC(=O)C(C(c2cccc(NS(=O)(=O)c3ccccc3)c2)C2CC2)=C1O (stereo not drawn) [IX-15, Benzenesulfonamide, N-(3-(cyclopropyl(1,5-dihydro-4-hydroxy-2-oxo-5,5-dipropyl-3-furanyl)methyl)phenyl)-]",inhibition at 0.12 µM (HIV-1 dose 0.12 μM): 94%; inhibition at 0.37 µM (HIV-1 dose 0.37 μM): 102%; inhibition at 1.1 µM: 104%
120%,120%,117%,"CCCC1(CCC)OC(=O)C(C(c2cccc(NS(=O)(=O)c3ccc(C#N)cc3)c2)C(C)(C)C)=C1O (stereo not drawn) [IX-25, Benzenesulfonamide, 4-Cyano-N-(3-(1-(4-hydroxy-2-oxo-5,5-dipropyl-2,5-dihydro-furan-3-yl)-2,2-dimethyl-propyl)-phenyl)-]",
,,,"CCCC1(CCC)OC(=O)C(C(c2cccc(NS(=O)(=O)c3ccc(C#N)c(C4CCCC4)c3)c2)C2CCCC2)=C1O (stereo not drawn) [IX-49, Benzenesulfonamide, 4-cyano 3-cyclpentyl-N-(3-(cyclopentyl(2,5-dihydro-4-hydroxy-2-oxo-5,5-dipropyl-3-furanyl)methyl)phenyl)-]",HIV-1 Protease % Inhibition [1]: 86.97%; HIV-1 Protease % Inhibition [2]: 94.94%; HIV-1 Protease % Inhibition [3]: 78.56%
85.9%,104%,84.3%,"CCC(CC)C1OC(=O)C(C(c2ccccc2)C2CC2)=C1O (stereo not drawn) [GX-8, 2(5H)-Furanone, 3-(cyclopropylphenylmethyl)-5-(1-ethylpropyl)-4-hydroxy-]",
15.5%,35.4%,50.6%,"O=C1OC(CCCc2ccccc2)C(O)=C1C(Cc1ccccc1)c1ccccc1 (stereo not drawn) [FX-1, 2(5H)-Furanone, 3-(1,2-diphenylethyl)-4-hydroxy-5-(3-phenylpropyl)-]",
102%,105%,92.4%,CC(C)(C)C(C1=C(O)C(Cc2ccccc2)(Cc2ccccc2)OC1=O)c1cccc(NS(=O)(=O)c2ccc(C#N)cc2)c1 (stereo not drawn) [IX-54],
102%,113%,102%,"CCCC1(CCC)OC(=O)C(C(CC)c2cccc([N+](=O)[O-])c2)=C1O (stereo not drawn) [IX-2, 2(5H)-Furanone, 4-hydroxy-3-(1-(3-nitrophenyl)propyl)-5,5-dipropyl-]",
,104%,110%,"O=C1OC2(CCCCCCC2)C(O)=C1C(c1ccccc1)C1CC1 (stereo not drawn) [CX-2, 1-Oxaspiro[4.7]dodec-3-en-2-one, 3-(cyclopropylphenylmethyl)-4-hydroxy-]",inhibition at 1.1 µM: 96%
